Experimental data taken from patent US5167616A, “Iontophoretic delivery method” (priority 1989, dated 1992).
“And” between values parts separate entries of the source, which are not always exact repeats. Identical values can stand only once.

Experiment: Iontophoretic transdermal flux of metoclopramide through human cadaver skin (heat-stripped epidermis, two-compartment permeation test cell)
Format: in vitro ADME
Conditions: for Ratio of Average Flux-to-Power: power from voltage at 3.75 hours
Description: The transdermal flux of metoclopramide HC1 through samples of human cadaver back skin was measured using a polycarbonate test cell in which the skin sample to be tested is secured between a donor compartment and a receptor compartment. […] The area of the skin samples available for transport was 1.26 cm^2. The test cell device was maintained at a temperature of 32° C. using an aluminum block heat exchanger. An anode comprising a disk of silver foil having a thickness of 0.025 mm was present in the donor compartment while a cathode comprising a sintered disk of powdered silver metal and silver chloride was present in the receptor compartment. Thus, the reduction of silver ions to silver metal occurred at the cathode, while the oxidation of silver to silver ions took place at the anode.
Human cadaver skin was used for the permeation studies. Before securing the skin samples between the donor and the receptor compartment of the test cell, the skin was first heat-stripped by immersing the skin sample in water maintained at 60° C. for 90 seconds allowing the epidermis layer to be separated from the dermis. Circular epidermis samples having a diameter of 2.22 cm were cut using a gasket cutting punch. The epidermis samples were then mounted in the permeation test cell with the stratum corneum side facing the donor compartment.
The electrodes of the test cell were then connected to a Model 363 Potentiostat/Galvanostat, made by EG&G Princeton Applied Research, Princeton, NJ, which supplied a constant level of direct current of 126 μA or 100 μA/cm^2.
The test cell was in operation for four hours with each skin sample. During operation, metoclopramide was iontophoretically delivered from the donor solution through the cadaver skin into the receptor solution. The receptor solution was sampled once every hour over the four hour period. The entire volume (2 ml) of receptor solution was collected and replaced with fresh solution at each sampling point. The metoclopramide concentration in the receptor solution was determined by UV absorbance at 310 nm using a spectrophotometer manufactured by Hewlett Packard, of Palo Alto, CA, Model No. 8452A. Each flux data point shown in FIG. 4 was an average value from three skin specimens, all three specimens having been taken from the same cadaver.
The voltage for each skin sample was monitored throughout the experiment. A representative voltage was measured at 3.75 hours after start of operation for each skin sample and is recorded in Table 2. The power was calculated by multiplying the measured voltage at 3.75 hours by the applied current (i.e., 100 μA/cm^2).
The same equipment and procedures described in Example 1 were used to test human cadaver skin taken from the following sites of the same cadaver tested in Example 1: abdomen, upper arm, forearm, chest and hip/thigh. The average flux of metoclopramide through these skin sites is also plotted in FIG. 4. […] In general, the flux of metoclopramide through back skin was about 50% to 150% higher than the metoclopramide flux through the other tested skin sites.

With CCN(CC)CCNC(=O)c1cc(Cl)c(N)cc1OC [metoclopramide] the “Flux through back skin, increase over flux through the other tested skin sites” value was 50-150%, the “Flux through human back skin compared with the other tested skin sites (in words)” value was “significantly higher flux” and the “Average Ratio of Average Flux-to-Power” value (Abdomen skin, mean of 3 samples) was 336 μg/cm^2 · hr .multido. The “Ratio of Average Flux-to-Power” value (Abdomen skin) was 347 μg/cm^2 · hr .multido and 277 μg/cm^2 · hr .multido and 384 μg/cm^2 · hr .multido, the “Average Ratio of Average Flux-to-Power” value (Back skin, mean of 6 samples) was 431 μg/cm^2 · hr .multido and the “Average Ratio of Average Flux-to-Power” value (Chest skin, mean of 3 samples) was 204 μg/cm^2 · hr .multido. For the same compound, the “Ratio of Average Flux-to-Power” value (Chest skin) was 205 μg/cm^2 · hr .multido and 196 μg/cm^2 · hr .multido and 211 μg/cm^2 · hr .multido, the “Average Ratio of Average Flux-to-Power” value (Forearm skin, mean of 3 samples) was 230 μg/cm^2 · hr .multido and the “Average Ratio of Average Flux-to-Power” value (Hip/Thigh skin, mean of 3 samples) was 222 μg/cm^2 · hr .multido. For the same compound, the “Ratio of Average Flux-to-Power” value (Hip/Thigh skin) was 164 μg/cm^2 · hr .multido and 305 μg/cm^2 · hr .multido and 197 μg/cm^2 · hr .multido, the “Average Ratio of Average Flux-to-Power” value (Upper Arm skin, mean of 2 samples) was 307 μg/cm^2 · hr .multido and the “Average ratio of average flux-to-power, ranking of skin sites (in words)” value (back skin, followed by the abdomen and upper arm, Table 2) was “highest average ratio of average flux-to-power”.
